# Experimental data reported in article PMC7782785, “Outer-membrane-acting peptides and lipid II-targeting antibiotics cooperatively kill Gram-negative pathogens” (Communications Biology, 2021).
# Tests used:
# K. pneumoniae LMG 20218 [1] = details: K. pneumoniae
# Protocol: For the synergy test, standard checkerboard broth microdilution assays were conducted to test the synergistic effect of combined antimicrobials using the same condition as before[51],[56]. […] The initial concentration of both peptides was their individual MIC. 50 µL fresh bacterial suspension prepared as above was added to the wells already containing the antimicrobial compound mixture to achieve 100 µL final volume per well.
# The fractional inhibitory concentration (FIC) indices[57] were calculated using the formula FICI = FICa + FICb = MICac/MICa + MICbc/MICb, to determine whether the combination is additive, synergistic or antagonistic[51],[57]. The MICa and MICb is the MIC of compound A or B alone, respectively. MICac is the MIC of compound A in combination with compound B and MICbc is the MIC of compound B when it was combined with compound A. The FIC corresponds to the MIC of a compound in combination with the other compound, divided by the MIC of the compound alone. FICa is FIC of compound A while FICb is FIC of compound B. The FICI was interpreted according to EUCAST[58] as follows: synergistic, FICI ≤ 0.5; additive,0.5 < FICI ≤ 1; indifferent, 1 < FICI < 2; antagonistic, FICI ≥ 2.
# (§1) The condition for the tests and the analysis of the plates were performed as described above for the MIC tests.
# [2] = tested on: K. pneumoniae ATCC BAA-2524; assay: microbe, parasite or virus in culture; format: cell-based; details: Klebsiella pneumoniae, ATCCBAA2524, read-out: MIC alone (MICA vancomycin, MICB D-11)
# Protocol: (§2) MIC tests were performed in triplicate by liquid growth inhibition microdilution assays in sterile polypropylene microtiter plates according to the Clinical and Laboratory Standards Institute (CLSI) guideline for bacteria that grow aerobically. Briefly, the indicator strains were first streaked on the appropriate agar plate, and then single colonies were picked and incubated overnight in liquid broth. The final inoculum of bacteria was 5*10^5 CFU/mL prepared in CAMHB (cationic adjusted Mueller–Hinton broth, Sigma-Aldrich) or CAMHB plus 5% of lysed horse blood (TCS Biosciences, Buckingham, UK) in the case of S. pneumoniae. The antimicrobials were 2-fold serially diluted and 50 µL diluted bacterial suspension was added to each well to make the final volume 100 µL. The microtiter plates and the count plates were incubated at 37 °C for 16–20 h without shaking. Growth inhibition was assessed by measuring the OD600 using a microplate reader (Tecan Infinity F200). The lowest concentration of the antimicrobials that inhibits visible growth of the indicator strain is identified as the MIC value.
# E. coli B1927 = assay: microbe, parasite or virus in culture; format: cell-based; details: Escherichia coli, B1927, read-out: MIC alone (MICA vancomycin, MICB D-11)
# Protocol: as §2
# K. pneumoniae B1945 = assay: microbe, parasite or virus in culture; format: cell-based; details: Klebsiella pneumoniae, B1945, read-out: MIC alone (MICA vancomycin, MICB D-11)
# Protocol: as §2
# [3] = tested on: A. baumannii ATCC BAA-1605; assay: microbe, parasite or virus in culture; format: cell-based; details: Acinetobacter baumannii, ATCCBAA1605, read-out: MIC alone (MICA vancomycin, MICB D-11)
# Protocol: as §2
# P. aeruginosa ATCC 27853 = assay: microbe, parasite or virus in culture; format: cell-based; details: Pseudomonas aeruginosa, ATCC27853, read-out: MIC alone (MICA vancomycin, MICB D-11)
# Protocol: as §2
# [4] = tested on: P. aeruginosa ATCC BAA-2108; assay: microbe, parasite or virus in culture; format: cell-based; details: Pseudomonas aeruginosa, ATCCBAA2108, read-out: MIC alone (MICA vancomycin, MICB D-11)
# Protocol: as §2
# E. coli ATCC 25922 = assay: microbe, parasite or virus in culture; format: cell-based; details: Escherichia coli, ATCC25922, read-out: MIC alone (MICA vancomycin, MICB D-11)
# Protocol: as §2
# P. aeruginosa B1954 = assay: microbe, parasite or virus in culture; format: cell-based; details: Pseudomonas aeruginosa, B1954, read-out: MIC alone (MICA vancomycin, MICB D-11)
# Protocol: as §2
# E. coli ATCC BAA-2452 = assay: microbe, parasite or virus in culture; format: cell-based; details: Escherichia coli, ATCCBAA2452, read-out: MIC alone (MICA vancomycin, MICB D-11)
# Protocol: as §2
# [5] = tested on: all the Gram-negative strains tested; assay: organism not typed
# Protocol: as §2, §1
# Hemolytic activity was determined with fresh human red blood cells (hRBCs)[28]. The hRBCs were centrifuged (1000×g, 5 min) and the supernatant was discarded. The pellets were washed three times with PBS and diluted in PBS to make the cell stock solution with a cell density of 2*10^8 cells/mL. […] 1% Triton X-100 and PBS were used as controls. […] The supernatant was transferred to a new 96-well plate and hemolysis was monitored by measuring the absorbance at 450 nm (OD450). Hemolysis levels were calculated as percentage. % hemolysis = 100 × (As−A0)/(At−A0), where As, A0, and At are the absorbance of the hRBCs suspension in PBS with antimicrobial agents (As), without antimicrobial agents (A0), and with 1% Triton X-100 (At). […] For the TI calculation (TI = MHC/GM), other factors as the GM (geometric mean of MIC value of all the Gram-negative strains tested) were calculated.
# [6] = tested on: human red blood cells (hRBCs); assay: Hemolytic activity
# Protocol: Hemolytic activity was determined with fresh human red blood cells (hRBCs)[28]. The hRBCs were centrifuged (1000×g, 5 min) and the supernatant was discarded. The pellets were washed three times with PBS and diluted in PBS to make the cell stock solution with a cell density of 2*10^8 cells/mL. […] 1% Triton X-100 and PBS were used as controls. The cells were incubated at 37 °C for 1 h and centrifuged at 2000 rpm for 5 min. The supernatant was transferred to a new 96-well plate and hemolysis was monitored by measuring the absorbance at 450 nm (OD450). Hemolysis levels were calculated as percentage. % hemolysis = 100 × (As−A0)/(At−A0), where As, A0, and At are the absorbance of the hRBCs suspension in PBS with antimicrobial agents (As), without antimicrobial agents (A0), and with 1% Triton X-100 (At). […] For the TI calculation (TI = MHC/GM), other factors as the GM (geometric mean of MIC value of all the Gram-negative strains tested) were calculated.
# K. pneumoniae LMG 20218 [7] = assay: Antimicrobial activity in blood (ex vivo bacteremia model); format: cell-based; details: human blood, 10^8 CFU/mL inoculum, 37 °C, alone or (combination) with 4 µM D-11, triplicate
# Protocol: Briefly, blood from healthy donors was obtained from Sanquin (certified Dutch organization responsible for meeting the need in healthcare for blood and blood products, https://www.sanquin.nl/) and infected with 10^8 CFU/mL of K. pneumoniae LMG 20218. […] At 1, 2, 4, and 6 h 100 µL samples were taken from each one of the tubes and decimal serially diluted in PBS. Drops of 10 µL of each one of the dilutions were spotted on LB agar medium to follow the development of the infection. The experiment was performed in triplicate. Non-infected blood, infected blood, and blood plus peptide were used as a control.
structure (smiles),measurement,setting,value
CN[C@H](CC(C)C)C(=O)N[C@H]1C(=O)N[C@@H](CC(N)=O)C(=O)N[C@H]2C(=O)N[C@H]3C(=O)N[C@H](C(=O)N[C@H](C(=O)O)c4cc(O)cc(O)c4-c4cc3ccc4O)[C@H](O)c3ccc(c(Cl)c3)Oc3cc2cc(c3O[C@@H]2O[C@H](CO)[C@@H](O)[C@H](O)[C@H]2O[C@H]2C[C@](C)(N)[C@H](O)[C@H](C)O2)Oc2ccc(cc2Cl)[C@H]1O [Vancomycin],vancomycin concentration needed in combination with D-11,K. pneumoniae LMG 20218 [1]; checkerboard after the addition of excess LPS (1.0 mg/mL),at least 32 µM
same,vancomycin concentration inhibiting growth in combination with 1 µM D-11,K. pneumoniae LMG 20218 [1]; checkerboard without the addition of LPS,2 µM
same,MIC,[2],> 88.3 µM
same,MIC,E. coli B1927,88.3 µM
same,MIC,K. pneumoniae B1945,> 88.3 µM
same,MIC,[3],44.2 µM
same,MIC,P. aeruginosa ATCC 27853,> 88.3 µM
same,MIC,[4],> 88.3 µM
same,MIC,E. coli ATCC 25922,> 88.3 µM
same,MIC,P. aeruginosa B1954,88.3 µM
same,MIC,E. coli ATCC BAA-2452,> 88.3 µM
same,increase of MIC against Gram-negative pathogens when LPS was in the medium,"[5]; LPS 1 mg/mL, vancomycin: except against A. baumannii",2 fold
same,MIC,"[5]; read-out: GM, MIC geometric mean against all the Gram-negative strains tested",87.7 µM
same,"HC50, concentration that causes 50% hemolysis of hRBCs",[6],> 500 µM
same,"MHA, mean hemolytic activity",[6],0%
same,"MHC, minimal hemolytic concentration that caused 10% hemolysis of hRBCs",[6],1000 µM
same,hemolysis of hRBCs,[6],did not cause any hemolysis
same,bacterial count in infected whole blood after 6 h,K. pneumoniae LMG 20218 [7]; vancomycin 2 µM,10^12 CFU/mL
same,bacterial count in infected whole blood after 6 h,K. pneumoniae LMG 20218 [7]; vancomycin 4 µM,10^12 CFU/mL
same,bacterial count in infected whole blood after 6 h,K. pneumoniae LMG 20218 [7]; vancomycin 8 µM,10^12 CFU/mL
same,bacterial count in infected whole blood after 6 h,K. pneumoniae LMG 20218 [7]; vancomycin 16 µM,10^10 CFU/mL
